Organism: Rattus norvegicus
Assay: Open TG-GATES - Regimen: Single
Type: toxicity, organism-based, Sprague-Dawley
Design: regimen Single, gender Male, age 6 weeks
Conditions: in vivo, iv, 40 mg/kg, route intravenous injection, dose level Middle; for APTT / Bas / Eos / Fbg / Hb / Ht / Lym / MCH / MCHC / MCV / Mono / Neu / PT / Plat / RBC / Ret / WBC: tissue Blood; for KIDNEY_L / KIDNEY_R / KIDNEY_TOTAL: tissue Kidney; for LIVER: tissue Liver; for A/G / ALP / ALT / AST / BUN / CRE / Ca / Cl / DBIL / GLC / IP / K / LDH / Na / PL / RALB / TBIL / TC / TG / TP / gamma-GTP: tissue Plasma

`CN(C)c1ncnc2c1ncn2[C@@H]1O[C@H](CO)[C@@H](N)[C@H]1O` [PUROMYCIN AMINONUCLEOSIDE] showed a TERMINAL_BW (3 h) of 219 g, an APTT (3 h) of 21.1 s and a Bas (3 h) of 0%. It also gave an Eos (3 h) of 0.4%, a Fbg (3 h) of 283.6 mg/dL and a Hb (3 h) of 12.7 g/dL. It also gave a Ht (3 h) of 38%, a Lym (3 h) of 55.6% and an MCH (3 h) of 21.2 pg. For the same compound, the MCHC (3 h) was 33.6%, the MCV (3 h) was 63.3 fL and the Mono (3 h) was 4.2%. It also gave a Neu (3 h) of 38%, a PT (3 h) of 16.2 s and a Plat (3 h) of 115.8 x10_4/uL. The RBC (3 h) was 600.8 x10_4/ul, the Ret (3 h) was 6.9% and the WBC (3 h) was 148.2 x10_2/uL. For the same compound, the KIDNEY_L (3 h) was 0.9 g, the KIDNEY_R (3 h) was 1 g and the KIDNEY_TOTAL (3 h) was 1.9 g. The LIVER (3 h) was 9.9 g, the A/G (3 h) was 1.2 and the ALP (3 h) was 1624.6 IU/L. It also gave an ALT (3 h) of 39.2 IU/L, an AST (3 h) of 74 IU/L and a BUN (3 h) of 14.2 mg/dL. For the same compound, the CRE (3 h) was 0.2 mg/dL, the Ca (3 h) was 11.2 mg/dL and the Cl (3 h) was 105 meq/L. The DBIL (3 h) was 0.002 mg/dL, the GLC (3 h) was 177 mg/dL and the IP (3 h) was 8 mg/dL. For the same compound, the K (3 h) was 4.3 meq/L, the LDH (3 h) was 163.4 IU/L and the Na (3 h) was 140.6 meq/L. For the same compound, the PL (3 h) was 149 mg/dL, the RALB (3 h) was 2.9 g/dL and the TBIL (3 h) was 0.014 mg/dL. The TC (3 h) was 76.2 mg/dL, the TG (3 h) was 127.8 mg/dL and the TP (3 h) was 5.3 g/dL. It also gave a gamma-GTP (3 h) of 1 IU/L, a TERMINAL_BW (6 h) of 216.4 g and an APTT (6 h) of 22.5 s. The Bas (6 h) was 0%, the Eos (6 h) was 0.6% and the Fbg (6 h) was 317.6 mg/dL. The Hb (6 h) was 13 g/dL, the Ht (6 h) was 39% and the Lym (6 h) was 57.2%. The MCH (6 h) was 21 pg, the MCHC (6 h) was 33.5% and the MCV (6 h) was 62.8 fL. The Mono (6 h) was 3.4%, the Neu (6 h) was 37.8% and the PT (6 h) was 15.6 s. It also gave a Plat (6 h) of 134.5 x10_4/uL, an RBC (6 h) of 620.8 x10_4/ul and a Ret (6 h) of 6.9%. The WBC (6 h) was 125.7 x10_2/uL, the KIDNEY_L (6 h) was 1 g and the KIDNEY_R (6 h) was 1 g. It also gave a KIDNEY_TOTAL (6 h) of 1.9 g, an LIVER (6 h) of 9.6 g and an A/G (6 h) of 1.3. For the same compound, the ALP (6 h) was 1345.2 IU/L, the ALT (6 h) was 38.2 IU/L and the AST (6 h) was 68.6 IU/L. For the same compound, the BUN (6 h) was 12.8 mg/dL, the CRE (6 h) was 0.1 mg/dL and the Ca (6 h) was 11.2 mg/dL. The Cl (6 h) was 104.2 meq/L, the DBIL (6 h) was 0 mg/dL and the GLC (6 h) was 175.2 mg/dL. For the same compound, the IP (6 h) was 9.6 mg/dL, the K (6 h) was 4.3 meq/L and the LDH (6 h) was 166.6 IU/L. For the same compound, the Na (6 h) was 139.2 meq/L, the PL (6 h) was 149.2 mg/dL and the RALB (6 h) was 3 g/dL. For the same compound, the TBIL (6 h) was 0.024 mg/dL, the TC (6 h) was 78.4 mg/dL and the TG (6 h) was 81.6 mg/dL. For the same compound, the TP (6 h) was 5.4 g/dL, the gamma-GTP (6 h) was 1.2 IU/L and the TERMINAL_BW (9 h) was 210.8 g. The APTT (9 h) was 21.5 s, the Bas (9 h) was 0% and the Eos (9 h) was 1%. It also gave a Fbg (9 h) of 315.4 mg/dL, a Hb (9 h) of 13 g/dL and a Ht (9 h) of 38.9%. It also gave a Lym (9 h) of 62%, an MCH (9 h) of 20.6 pg and an MCHC (9 h) of 33.4%. It also gave an MCV (9 h) of 61.7 fL, a Mono (9 h) of 2.2% and a Neu (9 h) of 34.6%. For the same compound, the PT (9 h) was 15.9 s, the Plat (9 h) was 132.8 x10_4/uL and the RBC (9 h) was 631.6 x10_4/ul. For the same compound, the Ret (9 h) was 7.2%, the WBC (9 h) was 96.5 x10_2/uL and the KIDNEY_L (9 h) was 0.9 g. For the same compound, the KIDNEY_R (9 h) was 0.9 g, the KIDNEY_TOTAL (9 h) was 1.9 g and the LIVER (9 h) was 8.7 g. For the same compound, the A/G (9 h) was 1.3, the ALP (9 h) was 1104.4 IU/L and the ALT (9 h) was 35.8 IU/L. For the same compound, the AST (9 h) was 67 IU/L, the BUN (9 h) was 12.6 mg/dL and the CRE (9 h) was 0.1 mg/dL. It also gave a Ca (9 h) of 11.1 mg/dL, a Cl (9 h) of 104.2 meq/L and a DBIL (9 h) of 0.002 mg/dL. For the same compound, the GLC (9 h) was 176.6 mg/dL, the IP (9 h) was 10.3 mg/dL and the K (9 h) was 4.6 meq/L. The LDH (9 h) was 146 IU/L, the Na (9 h) was 139.6 meq/L and the PL (9 h) was 145.4 mg/dL. It also gave an RALB (9 h) of 3.1 g/dL, a TBIL (9 h) of 0.024 mg/dL and a TC (9 h) of 76.4 mg/dL. For the same compound, the TG (9 h) was 103.8 mg/dL, the TP (9 h) was 5.5 g/dL and the gamma-GTP (9 h) was 1.6 IU/L. The TERMINAL_BW (24 h) was 217.2 g, the APTT (24 h) was 20.8 s and the Bas (24 h) was 0%. For the same compound, the Eos (24 h) was 0.8%, the Fbg (24 h) was 315.4 mg/dL and the Hb (24 h) was 13 g/dL. It also gave a Ht (24 h) of 37.9%, a Lym (24 h) of 85% and an MCH (24 h) of 21.3 pg. For the same compound, the MCHC (24 h) was 34.3%, the MCV (24 h) was 62 fL and the Mono (24 h) was 3%. The Neu (24 h) was 10.2%, the PT (24 h) was 15.9 s and the Plat (24 h) was 116 x10_4/uL. It also gave an RBC (24 h) of 613.4 x10_4/ul, a Ret (24 h) of 6% and a WBC (24 h) of 71.4 x10_2/uL. The KIDNEY_L (24 h) was 1 g, the KIDNEY_R (24 h) was 1 g and the KIDNEY_TOTAL (24 h) was 2 g. It also gave an LIVER (24 h) of 9.9 g, an A/G (24 h) of 1.3 and an ALP (24 h) of 1315 IU/L. It also gave an ALT (24 h) of 46 IU/L, an AST (24 h) of 73 IU/L and a BUN (24 h) of 19.6 mg/dL. For the same compound, the CRE (24 h) was 0.2 mg/dL, the Ca (24 h) was 11.4 mg/dL and the Cl (24 h) was 103.2 meq/L. The DBIL (24 h) was 0.002 mg/dL, the GLC (24 h) was 179.2 mg/dL and the IP (24 h) was 10 mg/dL. For the same compound, the K (24 h) was 4.5 meq/L, the LDH (24 h) was 186.2 IU/L and the Na (24 h) was 140.6 meq/L. It also gave a PL (24 h) of 142 mg/dL, an RALB (24 h) of 3.1 g/dL and a TBIL (24 h) of 0.016 mg/dL. The TC (24 h) was 75 mg/dL, the TG (24 h) was 89.4 mg/dL and the TP (24 h) was 5.6 g/dL. The gamma-GTP (24 h) was 1.6 IU/L.
